Measurements as given in ChEMBL document CHEMBL1201862, “PubChem BioAssay data set” (2004).
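Five concentrations, 48 hours, 96-well plates. GI50 = concentration required for 50% inhibition of growth.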 The source made the active and inactive calls. Rule as the data show it: active = GI50 up to about 1.1 µM and inactive = higher.

How the values were obtained:
Assay in all cases: DTP human tumour cell line panel, 48 h
T47D = tested on: T47D
Malme-3M = tested on: Malme-3M
NCI-H226 = tested on: NCI-H226
CAKI-1 = tested on: CAKI-1
NCI-H522 = tested on: NCI-H522
A549 = tested on: A549
RXF 393 = tested on: RXF 393
EKVX = tested on: EKVX
HCT-15 = tested on: HCT-15
ACHN = tested on: ACHN
HL-60 = tested on: HL-60
UACC-257 = tested on: UACC-257
OVCAR-8 = tested on: OVCAR-8
MDA-MB-231 = tested on: MDA-MB-231
UACC-62 = tested on: UACC-62
NCI-H23 = tested on: NCI-H23
K562 = tested on: K562
PC-3 = tested on: PC-3
SF-295 = tested on: SF-295
SNB-19 = tested on: SNB-19
HOP-62 = tested on: HOP-62
SNB-75 = tested on: SNB-75
RPMI-8226 = tested on: RPMI-8226
A498 = tested on: A498
COLO 205 = tested on: COLO 205
Hs-578T = tested on: Hs-578T
MCF7 = tested on: MCF7
DU-145 = tested on: DU-145
SK-MEL-5 = tested on: SK-MEL-5
OVCAR-5 = tested on: OVCAR-5
BT-549 = tested on: BT-549
SK-OV-3 = tested on: SK-OV-3
SF-268 = tested on: SF-268
MOLT-4 = tested on: MOLT-4
SK-MEL-28 = tested on: SK-MEL-28
SR = tested on: SR
UO-31 = tested on: UO-31
IGROV-1 = tested on: IGROV-1
HT-29 = tested on: HT-29
HCT-116 = tested on: HCT-116
HCC 2998 = tested on: HCC 2998
SN12C = tested on: SN12C
TK-10 = tested on: TK-10
KM12 = tested on: KM12
SF-539 = tested on: SF-539
M14 = tested on: M14
SW-620 = tested on: SW-620
LOX IMVI = tested on: LOX IMVI
MDA-N = tested on: MDA-N
CCRF-CEM = tested on: CCRF-CEM
MDA-MB-435 = tested on: MDA-MB-435
NCI/ADR-RES = tested on: NCI/ADR-RES
U-251 = tested on: U-251
786-0 = tested on: 786-0
SK-MEL-2 = tested on: SK-MEL-2
NCI-H460 = tested on: NCI-H460
OVCAR-3 = tested on: OVCAR-3
HOP-92 = tested on: HOP-92

CCCCCC/C=C\CCCCCCCCC(=O)c1cccc(OC)c1OC
GI50 (T47D): 29.2 µM (inactive) | GI50 (Malme-3M): > 100 µM (inactive) | GI50 (NCI-H226): > 100 µM (inactive) | GI50 (CAKI-1): > 100 µM (inactive) | GI50 (NCI-H522): 44.6 µM (inactive) | GI50 (A549): > 100 µM (inactive) | GI50 (RXF 393): 21 µM (inactive) | GI50 (EKVX): > 100 µM (inactive) | GI50 (HCT-15): > 100 µM | GI50 (ACHN): > 100 µM (inactive) | GI50 (HL-60): 14.8 µM (inactive) | GI50 (UACC-257): 34.4 µM (inactive) | GI50 (OVCAR-8): > 100 µM (inactive) | GI50 (MDA-MB-231): > 100 µM (inactive) | GI50 (UACC-62): > 100 µM (inactive) | GI50 (NCI-H23): 40.2 µM (inactive) | GI50 (K562): 27.5 µM (inactive) | GI50 (PC-3): 71 µM (inactive) | GI50 (SF-295): 45.7 µM (inactive) | GI50 (SNB-19): > 100 µM (inactive) | GI50 (HOP-62): > 100 µM (inactive) | GI50 (SNB-75): > 100 µM (inactive) | GI50 (RPMI-8226): 34 µM (inactive) | GI50 (A498): 26 µM (inactive) | GI50 (COLO 205): 87.3 µM (inactive) | GI50 (Hs-578T): 65.2 µM (inactive) | GI50 (MCF7): > 10 µM (inactive) | GI50 (DU-145): > 100 µM (inactive) | GI50 (SK-MEL-5): 15.2 µM (inactive) | GI50 (OVCAR-5): > 100 µM (inactive) | GI50 (BT-549): > 100 µM (inactive) | GI50 (SK-OV-3): > 100 µM (inactive) | GI50 (SF-268): > 100 µM (inactive) | GI50 (MOLT-4): 25.7 µM (inactive) | GI50 (SK-MEL-28): > 100 µM (inactive) | GI50 (SR): 64.9 µM (inactive) | GI50 (UO-31): > 100 µM (inactive) | GI50 (IGROV-1): 35.4 µM (inactive) | GI50 (HT-29): 41.9 µM (inactive) | GI50 (HCT-116): 41.7 µM (inactive) | GI50 (HCC 2998): > 100 µM (inactive) | GI50 (SN12C): > 100 µM (inactive) | GI50 (TK-10): > 100 µM (inactive) | GI50 (KM12): 84.7 µM (inactive) | GI50 (SF-539): > 100 µM (inactive) | GI50 (M14): > 100 µM (inactive) | GI50 (SW-620): > 100 µM (inactive) | GI50 (LOX IMVI): 16.8 µM (inactive) | GI50 (MDA-N): 91.8 µM (inactive) | GI50 (CCRF-CEM): 35.6 µM (inactive) | GI50 (MDA-MB-435): 84.7 µM (inactive) | GI50 (NCI/ADR-RES): 60.8 µM (inactive) | GI50 (U-251): > 100 µM (inactive) | GI50 (786-0): > 100 µM (inactive) | GI50 (SK-MEL-2): > 100 µM (inactive)

CC(=O)OC(C(=O)NNC(=O)OC(C)(C)C)c1ccccc1 (stereo not drawn)
GI50 (T47D): > 100 µM (inactive) | GI50 (Malme-3M): > 100 µM (inactive) | GI50 (NCI-H226): > 100 µM (inactive) | GI50 (CAKI-1): > 100 µM (inactive) | GI50 (NCI-H522): > 100 µM (inactive) | GI50 (A549): > 100 µM (inactive) | GI50 (RXF 393): > 100 µM (inactive) | GI50 (NCI-H460): > 100 µM (inactive) | GI50 (EKVX): > 100 µM (inactive) | GI50 (HCT-15): > 100 µM | GI50 (ACHN): > 100 µM (inactive) | GI50 (OVCAR-3): > 100 µM (inactive) | GI50 (UACC-257): > 10 µM (inactive) | GI50 (OVCAR-8): > 100 µM (inactive) | GI50 (MDA-MB-231): > 100 µM (inactive) | GI50 (UACC-62): > 100 µM (inactive) | GI50 (NCI-H23): > 100 µM (inactive) | GI50 (K562): > 100 µM (inactive) | GI50 (PC-3): > 100 µM (inactive) | GI50 (SF-295): > 100 µM (inactive) | GI50 (SNB-19): > 100 µM (inactive) | GI50 (HOP-62): > 100 µM (inactive) | GI50 (SNB-75): > 100 µM (inactive) | GI50 (RPMI-8226): > 100 µM (inactive) | GI50 (COLO 205): > 100 µM (inactive) | GI50 (Hs-578T): > 100 µM (inactive) | GI50 (MCF7): > 100 µM (inactive) | GI50 (DU-145): > 100 µM (inactive) | GI50 (HOP-92): > 100 µM (inactive) | GI50 (SK-MEL-5): > 100 µM (inactive) | GI50 (OVCAR-5): > 100 µM (inactive) | GI50 (BT-549): > 100 µM (inactive) | GI50 (SK-OV-3): > 100 µM (inactive) | GI50 (SF-268): > 100 µM (inactive) | GI50 (MOLT-4): > 100 µM (inactive) | GI50 (SK-MEL-28): > 100 µM (inactive) | GI50 (SR): > 100 µM (inactive) | GI50 (UO-31): > 100 µM (inactive) | GI50 (IGROV-1): > 100 µM (inactive) | GI50 (HT-29): > 100 µM (inactive) | GI50 (HCC 2998): > 100 µM (inactive) | GI50 (SN12C): > 100 µM (inactive) | GI50 (TK-10): > 100 µM (inactive) | GI50 (KM12): > 100 µM (inactive) | GI50 (SF-539): > 100 µM (inactive) | GI50 (M14): > 100 µM (inactive) | GI50 (SW-620): > 100 µM (inactive) | GI50 (MDA-N): > 100 µM (inactive) | GI50 (MDA-MB-435): > 100 µM (inactive) | GI50 (NCI/ADR-RES): > 100 µM (inactive) | GI50 (U-251): > 100 µM (inactive) | GI50 (786-0): > 100 µM (inactive) | GI50 (SK-MEL-2): > 100 µM (inactive)
